Where a name gives a salt, the structure may show the parent alone. A value given as a limit tells only on which side of the number the result lay.

Type in all cases: biochemical
For experiment [1], the target named is T1, NUAK2 (h) (Homo sapiens, UniProt Q9H093).
T1 construct: This assay was done radiometrically using full-length, recombinant enzyme; purchased Eurofins
T1 sequence (Q9H093 1-628): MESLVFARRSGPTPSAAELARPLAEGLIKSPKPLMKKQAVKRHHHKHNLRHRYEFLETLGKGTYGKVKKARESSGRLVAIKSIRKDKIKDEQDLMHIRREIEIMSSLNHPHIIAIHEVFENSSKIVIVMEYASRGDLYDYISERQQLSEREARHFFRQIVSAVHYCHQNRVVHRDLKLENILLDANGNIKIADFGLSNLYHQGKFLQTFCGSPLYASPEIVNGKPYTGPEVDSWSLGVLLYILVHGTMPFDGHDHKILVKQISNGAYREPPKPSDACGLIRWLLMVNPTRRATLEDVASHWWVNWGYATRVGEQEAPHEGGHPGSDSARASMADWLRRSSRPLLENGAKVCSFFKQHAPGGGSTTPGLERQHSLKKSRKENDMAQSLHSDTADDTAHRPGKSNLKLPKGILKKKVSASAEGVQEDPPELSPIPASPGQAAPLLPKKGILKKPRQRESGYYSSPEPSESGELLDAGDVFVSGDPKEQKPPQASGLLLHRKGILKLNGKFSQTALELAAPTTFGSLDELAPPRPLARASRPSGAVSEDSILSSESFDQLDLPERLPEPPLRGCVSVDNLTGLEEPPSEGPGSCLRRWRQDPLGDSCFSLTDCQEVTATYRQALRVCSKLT
In words: NUAK2 enzymatic assay (radiometric, Eurofins). To be noted: for IC50: radiometric, full-length recombinant enzyme. On the procedure:
(§1) To identify small molecule NUAK inhibitors, a biochemical NUAK2 enzymatic assay was outsourced to Eurofins. This assay was done radiometrically using full-length, recombinant enzyme. NUAK2 (h) was incubated with 8 mM MOPS pH 7.0, 0.2 mM EDTA, 300 μM […], 10 mM magnesium acetate and […] (specific activity and concentration as required). The reaction was initiated by the addition of the Mg/ATP mix. After incubation for 40 minutes at room temperature, the reaction was stopped by the addition of phosphoric acid to a concentration of 0.5%. 10 μL of the reaction was then spotted onto a P30 filter mat and washed four times for 4 minutes in 0.425% phosphoric acid and once in methanol prior to drying and scintillation counting. Compounds were routinely counter screened against Aurora A and NUAK1. The results are shown in Table 1 where IC50s are reported the following ranges: A: 0.1-10 nM; B: 11-100 nM; C: 101-1000 nM; D: >1000 nM for the compounds of Formula I)

The target in experiment [2] is T2, NUAK1 (Homo sapiens, UniProt O60285).
T2 sequence (O60285 1-661): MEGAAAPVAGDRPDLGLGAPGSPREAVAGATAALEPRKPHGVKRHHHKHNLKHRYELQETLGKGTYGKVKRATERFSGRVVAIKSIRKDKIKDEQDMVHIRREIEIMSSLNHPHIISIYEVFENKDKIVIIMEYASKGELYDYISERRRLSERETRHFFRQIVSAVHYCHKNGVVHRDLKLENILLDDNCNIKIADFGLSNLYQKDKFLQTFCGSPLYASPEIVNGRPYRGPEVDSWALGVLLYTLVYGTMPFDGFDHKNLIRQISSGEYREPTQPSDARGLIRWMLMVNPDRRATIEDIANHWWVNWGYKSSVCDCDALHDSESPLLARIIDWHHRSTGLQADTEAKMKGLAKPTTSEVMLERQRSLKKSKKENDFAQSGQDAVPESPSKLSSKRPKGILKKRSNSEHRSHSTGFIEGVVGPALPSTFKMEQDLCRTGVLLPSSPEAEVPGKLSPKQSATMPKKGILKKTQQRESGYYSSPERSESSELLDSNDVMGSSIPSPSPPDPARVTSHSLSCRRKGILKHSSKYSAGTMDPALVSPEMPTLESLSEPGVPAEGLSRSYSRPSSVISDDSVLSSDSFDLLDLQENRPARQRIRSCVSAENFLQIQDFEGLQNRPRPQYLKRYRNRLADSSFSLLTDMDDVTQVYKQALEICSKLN
In words: NUAK1 counter screen. On the procedure:
as §1
For orientation: The purpose of a counterscreen is to sort out artefacts and off-target activity.

Experiment [3] deals with T3, Aurora A (Homo sapiens, UniProt O14965).
T3 sequence (O14965 1-403): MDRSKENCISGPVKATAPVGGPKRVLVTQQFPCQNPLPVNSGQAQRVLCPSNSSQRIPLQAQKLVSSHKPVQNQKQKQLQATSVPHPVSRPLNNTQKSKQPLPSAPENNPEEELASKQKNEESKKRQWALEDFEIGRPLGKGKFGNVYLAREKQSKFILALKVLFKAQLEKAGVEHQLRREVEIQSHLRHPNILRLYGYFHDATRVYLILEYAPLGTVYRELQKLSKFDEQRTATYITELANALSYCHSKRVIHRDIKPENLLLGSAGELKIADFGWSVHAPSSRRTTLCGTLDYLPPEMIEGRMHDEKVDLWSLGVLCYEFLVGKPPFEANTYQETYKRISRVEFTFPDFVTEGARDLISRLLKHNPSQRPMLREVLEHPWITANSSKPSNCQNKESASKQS
In words: Aurora A counter screen. To be noted: read-out: AUR-A (IC50). On the procedure:
as §1

On to `CCN1CCN(C2CCN(c3ccc(Nc4ncc(C(F)(F)F)c(Nc5ccsc5C(N)=O)n4)c(OC(F)F)c3)CC2)CC1` [Compound I-77, 3-((2-((2-(difluoromethoxy)-4-(4-(4-ethylpiperazin-1-yl)piperidin-1-yl)phenyl)amino)-5-(trifluoromethyl)pyrimidin-4-yl)amino)thiophene-2-carboxamide], for which the IC50 in experiment [1] fell in the range of 0.1 to 10 nM; in experiment [2], 0.1 to 10 nM; in experiment [3], 101 to 1000 nM.

Take `CN1CCC2(CC1)CCN(c1ccc(Nc3ncc(Cl)c(Nc4ccsc4C(N)=O)n3)c(OC(F)F)c1)C2` [Compound I-53, 3-((5-chloro-2-((2-(difluoromethoxy)-4-(8-methyl-2,8-diazaspiro[4.5]decan-2-yl)phenyl)amino)pyrimidin-4-yl)amino)thiophene-2-carboxamide]: the IC50 lay in the range of 11 to 100 nM in experiment [1], 11 to 100 nM in experiment [2] and 101 to 1000 nM in experiment [3].

Turning to `C[C@@H]1CN(C2CCN(c3ccc(Nc4ncc(C(F)(F)F)c(Nc5ccsc5C(N)=O)n4)c(OC(F)F)c3)CC2)C[C@H](C)N1C` [Compound I-67, 3-((2-((2-(difluoromethoxy)-4-(4-((3R,5S)-3,4,5-trimethylpiperazin-1-yl)piperidin-1-yl)phenyl)amino)-5-(trifluoromethyl)pyrimidin-4-yl)amino)thiophene-2-carboxamide], the IC50 in experiment [1] lay within 11 to 100 nM; in experiment [2], 11 to 100 nM; in experiment [3], 101 to 1000 nM.

Consider `CN1CCN(c2ccc(Nc3nccc(Nc4ccsc4C(N)=O)n3)c(OC(F)F)c2)CC1` [Compound I-3, 3-((2-((2-(difluoromethoxy)-4-(4-methylpiperazin-1-yl)phenyl)amino)pyrimidin-4-yl)amino)thiophene-2-carboxamide], for which the IC50 in experiment [1] is 101 to 1000 nM; in experiment [2], 101 to 1000 nM; in experiment [3], greater than 1000 nM.

Regarding `CN1C[C@H]2C[C@@H]1CN2c1ccc(Nc2ncc(Cl)c(Nc3ccsc3C(N)=O)n2)c(OC(F)F)c1` [Compound I-9, 3-((5-chloro-2-((2-(difluoromethoxy)-4-((1R,4R)-5-methyl-2,5-diazabicyclo[2.2.1]heptan-2-yl)phenyl)amino)pyrimidin-4-yl)amino)thiophene-2-carboxamide], the values for the IC50 in experiment [1], in experiment [2] and in experiment [3] were 0.1 to 10 nM, 11 to 100 nM and 101 to 1000 nM, respectively.

Regarding `CN1C2CCC1CN(c1ccc(Nc3ncc(Cl)c(Nc4sccc4C(N)=O)n3)c(OC(F)F)c1)C2` [Compound I-32, 2-((5-chloro-2-((2-(difluoromethoxy)-4-(8-methyl-3,8-diazabicyclo[3.2.1]octan-3-yl)phenyl)amino)pyrimidin-4-yl)amino)thiophene-3-carboxamide], the IC50 fell in the range of 11 to 100 nM in experiment [1], 11 to 100 nM in experiment [2] and 101 to 1000 nM in experiment [3].

In the case of `CN1C[C@H]2C[C@@H]1CN2c1ccc(Nc2ncc(Cl)c(Nc3sccc3C(N)=O)n2)c(OC(F)F)c1` [Compound I-18, 2-((5-chloro-2-((2-(difluoromethoxy)-4-((1R,4R)-5-methyl-2,5-diazabicyclo[2.2.1]heptan-2-yl)phenyl)amino)pyrimidin-4-yl)amino)thiophene-3-carboxamide], the figures for the IC50 in experiment [1], in experiment [2] and in experiment [3] were 0.1 to 10 nM, 11 to 100 nM and 101 to 1000 nM, respectively.

As to `CC(C)Oc1cc(N2CCN(C)CC2)ccc1Nc1ncc(Cl)c(N[C@@H]2CCCC[C@@H]2C(N)=O)n1` [Compound C-6, reference compound], the “AUR-A (IC50, nM)/NUAK2 (IC50, nM)” value in experiment [1] (NUAK2 selectivity over Aurora-A, ratio of IC50s) is 14. In addition, the IC50 in experiment [1] was 101 to 1000 nM; in experiment [2], greater than 1000 nM; in experiment [3] it was greater than 1000 nM.

Consider `CC(C)N1CCN(c2ccc(Nc3ncc(Cl)c(Nc4sccc4C(N)=O)n3)c(OC(F)F)c2)CC1` [Compound I-13, 2-((5-chloro-2-((2-(difluoromethoxy)-4-(4-isopropylpiperazin-1-yl)phenyl)amino)pyrimidin-4-yl)amino)thiophene-3-carboxamide], for which the IC50 in experiment [1] lay within 0.1 to 10 nM; in experiment [2] it was 11 to 100 nM; in experiment [3] it was 11 to 100 nM.

As to `CC(C)N1CCN(c2ccc(Nc3ncc(Cl)c(Nc4ccsc4C(N)=O)n3)c(OC(F)F)c2)CC1` [Compound I-12, 3-((5-chloro-2-((2-(difluoromethoxy)-4-(4-isopropylpiperazin-1-yl)phenyl)amino)pyrimidin-4-yl)amino)thiophene-2-carboxamide hydrochloride], the figures for the IC50 in experiment [1], in experiment [2] and in experiment [3] were 0.1 to 10 nM, 0.1 to 10 nM and 11 to 100 nM, respectively.

On to `NC(=O)c1sccc1Nc1nc(Nc2ccc(N3CCCC3)cc2OC(F)F)ncc1Cl` [Compound I-28, 3-((5-chloro-2-((2-(difluoromethoxy)-4-(pyrrolidin-1-yl)phenyl)amino)pyrimidin-4-yl)amino)thiophene-2-carboxamide], for which the IC50 in experiment [1] lay within 101 to 1000 nM; in experiment [2] it was 11 to 100 nM; in experiment [3], 101 to 1000 nM.

Consider `NC(=O)c1sccc1Nc1nc(Nc2ccc(N3CCOCC3)cc2OC(F)F)ncc1C(F)(F)F` [Compound I-39, 3-((2-((2-(difluoromethoxy)-4-morpholinophenyl)amino)-5-(trifluoromethyl)pyrimidin-4-yl)amino)thiophene-2-carboxamide], for which the values for the IC50 in experiment [1], in experiment [2] and in experiment [3] were 11 to 100 nM, 11 to 100 nM and 101 to 1000 nM, respectively.

Regarding `C[C@@H]1CN(C2CCN(c3ccc(Nc4ncc(Cl)c(Nc5ccsc5C(N)=O)n4)c(OC(F)F)c3)CC2)C[C@@H](C)N1C` [Compound I-69, 3-((5-chloro-2-((2-(difluoromethoxy)-4-(4-((3R,5R)-3,4,5-trimethylpiperazin-1-yl)piperidin-1-yl)phenyl)amino)pyrimidin-4-yl)amino)thiophene-2-carboxamide], the IC50 lay within 0.1 to 10 nM in experiment [1], 11 to 100 nM in experiment [2] and 11 to 100 nM in experiment [3].

With `CN1CCN(C2CCN(c3ccc(Nc4ncc(Cl)c(Nc5sccc5C(N)=O)n4)c(OC(F)F)c3)CC2)CC1` [Compound I-74, 2-((5-chloro-2-((2-(difluoromethoxy)-4-(4-(4-methylpiperazin-1-yl)piperidin-1-yl)phenyl)amino)pyrimidin-4-yl)amino)thiophene-3-carboxamide], the concentration for half-maximal inhibition (IC50) in experiment [2] is 11 to 100 nM; in experiment [3], greater than 1000 nM.

On to `COc1cnc(Nc2ccc(N3CCN(C)CC3)cc2OC(F)F)nc1Nc1ccsc1C(N)=O` [Compound I-81], for which the figures for the IC50 in experiment [1] and in experiment [2] were 11 to 100 nM and 101 to 1000 nM, respectively.

Regarding `CNC(=O)c1sccc1Nc1nc(Nc2ccc(N3CCN(C)CC3)cc2C(F)(F)F)ncc1Cl` [Compound I-59, 3-((5-chloro-2-((4-(4-methylpiperazin-1-yl)-2-(trifluoromethyl)phenyl)amino)pyrimidin-4-yl)amino)-N-methylthiophene-2-carboxamide], the IC50 in experiment [1] is 11 to 100 nM; in experiment [3], greater than 1000 nM.

As a reminder, the IC50 is the concentration needed to halve the response being measured.
